Reference: the supplement of paper PMC11208160

Test: recombinant UMI read abundance after kanamycin selection (control-corrected) (log10(CPM+1)); higher = more efficient recombination; extreme values may be limits of the assay; sequences stand for … in AGTGCAGAGAAAATCGGCCAGTTTTCTCTGCCTGCAGTCCGCATGCCGTGGGACCCCTTGGGTTCTAACCTGTTGCCTAGATTTATGCAGCGGACTGCCTTTCTCCCAAAGTGATAAACCGG…AGGTTGGTTTCACT; site = the 11-nt donor
Procedure, shortened: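 In Escherichia coli, a pool of donor and donor-binding-loop pairs, each with a 12-nt UMI, was tested for the IS621 bridge recombinase. Plating was on IPTG (0.07 mM) plus kanamycin, or without selection, in two replicates. Recombinant UMIs were amplified by PCR across the donor–target junction and sequenced, and counts were reported as log10(CPM+1) after averaging and control-derived scaling.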
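Further: IS621 bridge recombinase in Escherichia coli cells against a fixed T5 target plasmid.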

Sequence | recombinant UMI read abundance (log10)
GGGACGTCATGGACCGGTTTTCCCGGTAATCCGTATTTGTT (site GGAACGTCTAA) | 0.547
GGGACGTCATGGACCGGTTTTCCCGGTAATCCGTATTTGTT (site GGCACGTCTAA) | 0.0541
GGGACGTCATGGACCGGTTTTCCCGGTAATCCGTATTTGTT (site GGGACGTCTAA) | 1.78
GGGACGTCATGGACCGGTTTTCCCGGTAATCCGTATTTGTT (site GGTACGTCTAA) | 0.0147
GGGAGGACATGGACCGGTTTTCCCGGTAATCCGTATTTGCC (site GGGAGGACTGG) | 2.04
GGGATAACATGGACCGGTTTTCCCGGTAATCCGTATTTGCC (site GGGATAACTGG) | 0
GGGATGACATGGACCGGTTTTCCCGGTAATCCGTATTTGCT (site GGGATGACTAG) | 2.32
GGGATTGCATGGACCGGTTTTCCCGGTAATCCGTATTTGAC (site GGGATTGCTGT) | 2.05
GGGCAGCCATGGACCGGTTTTCCCGGTAATCCGTATTTGGG (site GGGCAGCCTCC) | 0.0377
GGGCATGCATGGACCGGTTTTCCCGGTAATCCGTATTTGAA (site GGGCATGCTTT) | 1.59
GGGCCAACATGGACCGGTTTTCCCGGTAATCCGTATTTGTA (site GGACCAACTTA) | 0.317
GGGCCAACATGGACCGGTTTTCCCGGTAATCCGTATTTGTA (site GGCCCAACTTA) | 0.0205
GGGCCAACATGGACCGGTTTTCCCGGTAATCCGTATTTGTA (site GGGCCAACTTA) | 0.645
GGGCCAACATGGACCGGTTTTCCCGGTAATCCGTATTTGTA (site GGTCCAACTTA) | 0.0061
GGGCGACCATGGACCGGTTTTCCCGGTAATCCGTATTTGTT (site GGGCGACCTAA) | 0
GGGCGCCCATGGACCGGTTTTCCCGGTAATCCGTATTTGGG (site GGGCGCCCTCC) | 0.0048

Sequence | recombinant UMI read abundance (log10)
GGGCTGGCATGGACCGGTTTTCCCGGTAATCCGTATTTGAC (site GGGCTGGCTGT) | 0.6
GGGGAGCCATGGACCGGTTTTCCCGGTAATCCGTATTTGAA (site GGGGAGCCTTT) | 0
GGGGATACATGGACCGGTTTTCCCGGTAATCCGTATTTGAT (site GGGGATACTAT) | 1.2
GGGGCAACATGGACCGGTTTTCCCGGTAATCCGTATTTGCA (site GGGGCAACTTG) | 1.4
GGGGCAACATGGACCGGTTTTCCCGGTAATCCGTATTTGCA (site GGGGCACCTTG) | 0.00712
GGGGCAACATGGACCGGTTTTCCCGGTAATCCGTATTTGCA (site GGGGCAGCTTG) | 0
GGGGCAACATGGACCGGTTTTCCCGGTAATCCGTATTTGCA (site GGGGCATCTTG) | 0
GGGGCACCATGGACCGGTTTTCCCGGTAATCCGTATTTGAA (site GGGGCACCTTA) | 0.00926
GGGGCACCATGGACCGGTTTTCCCGGTAATCCGTATTTGAA (site GGGGCACCTTC) | 0.018
GGGGCACCATGGACCGGTTTTCCCGGTAATCCGTATTTGAA (site GGGGCACCTTG) | 0
GGGGCACCATGGACCGGTTTTCCCGGTAATCCGTATTTGAA (site GGGGCACCTTT) | 0.0108
GGGGCACCATGGACCGGTTTTCCCGGTAATCCGTATTTGCC (site GGGGCACCTAG) | 0.0374
GGGGCACCATGGACCGGTTTTCCCGGTAATCCGTATTTGCC (site GGGGCACCTCG) | 0.0076
GGGGCACCATGGACCGGTTTTCCCGGTAATCCGTATTTGCC (site GGGGCACCTGG) | 0
GGGGCACCATGGACCGGTTTTCCCGGTAATCCGTATTTGCC (site GGGGCACCTTG) | 0.00491
GGGGCCCCATGGACCGGTTTTCCCGGTAATCCGTATTTGCA (site GGGGCACCTTG) | 0.00505
